Laboratory results from patent US20250295609A1, “COMPOUND HAVING ANTI-ANDROGEN RECEPTOR ACTIVITY, AND USE THEREOF” (NANJING MINOVA PHARMACEUTICAL CO., LTD., priority 2022, published 2025).
Structures can show the parent of a compound that is named as a salt. Where two headings read alike, the source gives them in different places.

How the values were obtained:
[1] = tested on: human prostate cancer cells LNCaP; test: Cell viability inhibition assay (CTG) on LNCaP cells in presence of DHT; format: cell-based; conditions: read-out: Inhibitory activity against human prostate cancer cell LNCaP IC50
From the text: Human prostate cancer cells LNCaP and human prostate cancer cells 22Rvl are present in patients with prostate cancer. An androgen, DHT, is able to promote the growth of human prostate cancer cells LNCaP. Using the cell model described above was intended to study the inhibitory effects of the compounds of the present disclosure on the growth of human prostate cancer cells (human prostate cancer cells LNCaP and human prostate cancer cells 22Rvl) in the presence or absence of DHT.
The medium in the culture dish was discarded, and 5 mL of trypsin was added for digestion for about 3 mins. The digestion was stopped by adding 10 mL of a fresh medium. The cells were fully pipetted and transferred to a 15 mL centrifuge tube, and the cells were collected by centrifugation at 1000 rpm for 5 mins. The cells collected by centrifugation were resuspended in 11 mL of a fresh medium. 1 mL of the cells was taken and counted, and the cell viability was detected. The cell density was adjusted to 1×10^4 cells/mL by adding an appropriate amount of the medium. The cells were seeded in a 96-well plate at 200 µL/well, and the plate was incubated overnight in a cell incubator.
After the cells were attached to the well, for the human prostate cancer cells LNCaP group, test compounds (0.1 μM, 0.3 μM, 1 μM, 3 μM, 10 μM, and 30 μM) and DHT (1 nM, inducing the expression of AR) were added to the 96-well plate, and the plate was incubated for another 5 days; for the human prostate cancer cells 22Rvl group, test compounds (0.1 μM, 0.3 μM, 1 μM, 3 μM, 10 μM, and 30 μM) were added to the 96-well plate, and the plate was incubated for another 5 days. […] The 96-well plate was equilibrated at room temperature for 30 mins. The cell viability was detected by using a CTG method. Before detection, CellTiter-Glo® Buffer and a substrate thereof (collectively called CTG reagent) were thawed and equilibrated to room temperature. Then, […] of Buffer was gently mixed with the substrate to form a homogeneous solution. The homogeneous solution was added to the 96-well plate at 100 µL/well, and the 96-well plate was incubated on a shaker for 15 mins. The fluorescence value in each well was then detected. The detection method for the fluorescence value in each well was as follows: after adding the CTG reagent, luminescence detection (integration time: 500 ms) was performed by using a correspondingly equipped multi-mode microplate reader (M200Pro, TECAN, Switzerland) according to the supplier's manual to quantify the effect of the inhibitor on the cell viability. For data analysis, an assay background value was subtracted from all data points, which was determined in wells containing the medium but no cells. Data were processed using the XLfit software (XLfit 5.2., IDBS, UK), and IC50 values of the test compounds were calculated.

[2] = molecular target: T1, AR protein expression in human prostate cancer cells LNCaP (Homo sapiens, UniProt P10275, T878A); test: Reduction of AR protein expression in LNCaP cells (Western blot, with DHT); format: cell-based; conditions: 1 nM DHT; for anti-AR activity (in words): Western blot; for AR reduction percentage: 2.5 μmol/L compound; for AR reduction percentage / Relative potency (anti-AR activity): 48 h; for Relative potency (anti-AR activity): concentration basis not given
T1 sequence (P10275 1-920 T878A): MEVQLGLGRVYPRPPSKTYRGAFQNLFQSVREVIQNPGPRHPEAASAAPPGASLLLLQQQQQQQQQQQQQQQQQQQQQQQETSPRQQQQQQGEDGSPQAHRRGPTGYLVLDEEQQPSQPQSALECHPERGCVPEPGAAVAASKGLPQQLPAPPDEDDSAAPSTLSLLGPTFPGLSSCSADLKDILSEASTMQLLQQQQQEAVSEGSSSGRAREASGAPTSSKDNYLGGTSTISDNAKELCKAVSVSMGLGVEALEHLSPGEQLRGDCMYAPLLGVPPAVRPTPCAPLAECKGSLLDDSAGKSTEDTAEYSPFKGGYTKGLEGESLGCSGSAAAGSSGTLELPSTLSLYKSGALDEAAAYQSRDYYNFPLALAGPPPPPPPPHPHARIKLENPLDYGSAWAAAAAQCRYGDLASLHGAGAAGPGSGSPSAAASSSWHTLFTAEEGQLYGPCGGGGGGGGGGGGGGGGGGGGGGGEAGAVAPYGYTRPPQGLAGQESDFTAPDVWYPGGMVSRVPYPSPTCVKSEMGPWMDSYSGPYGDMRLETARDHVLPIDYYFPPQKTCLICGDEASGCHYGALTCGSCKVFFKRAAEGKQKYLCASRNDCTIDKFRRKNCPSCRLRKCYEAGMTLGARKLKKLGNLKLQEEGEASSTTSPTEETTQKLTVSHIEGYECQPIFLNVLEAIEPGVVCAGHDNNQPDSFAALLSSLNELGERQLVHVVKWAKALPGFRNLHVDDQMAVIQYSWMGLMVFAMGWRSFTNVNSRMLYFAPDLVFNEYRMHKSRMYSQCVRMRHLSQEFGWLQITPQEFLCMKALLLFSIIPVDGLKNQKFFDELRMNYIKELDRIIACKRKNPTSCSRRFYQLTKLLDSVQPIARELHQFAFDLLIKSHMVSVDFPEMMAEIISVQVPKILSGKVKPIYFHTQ
Procedure: The term “anti-AR activity” refers to the ability of the compound of the present disclosure to reduce AR expression in human prostate cancer cells LNCaP, and the ability of the compound of the present disclosure to reduce AR expression is expressed in AR reduction percentage (%) herein. […] The AR reduction percentage (%) is calculated as follows: AR reduction percentage (%)=(AR in DHT group/GAPDH value−AR in test compound group/GAPDH value)/AR in DHT group/GAPDH value×100%.
AR is a key factor for regulating the response of prostate cancer cells to androgens. AR is also a key factor for the response of hair follicles or tissues around the hair follicles to androgens, and the reduction of the AR content not only can down-regulate the growth of the prostate cancer cells, but also can inhibit androgenetic alopecia. This test example is to test the effects of the compounds of the present disclosure on the reduction of AR protein expression in human prostate cancer cells LNCaP in the presence of DHT. The compounds of the present disclosure were analyzed for anti-AR activity in human prostate cancer cells LNCaP by measuring the reduction of AR protein using the Western blot method.
Human prostate cancer cells LNCaP were seeded in a 6-well plate at 4×10^5 cells/mL and at a volume of 2 mL per well. The plate was incubated overnight in a cell incubator. DMSO and dihydrotestosterone (DHT, 1 nM) were used as control groups. Assays were performed in the presence of dihydrotestosterone (DHT, 1 nM). After incubating with the test compounds for a specified time, the cells were collected and dissolved according to the Western blot technique known in the biochemical art. A DMSO group, a DHT group (1 nM) and test compound groups (containing 1 nM DHT) were set during the assay. DMSO and DHT (1 nM DHT) were added to 6-well plates corresponding to the DMSO group and the DHT group, respectively. […] The protein concentration was quantified using the BCA kit, and then the samples were stored for later use.
The content of the AR protein in each group was determined by using Western Blot, and the loading amount of the sample in each group was […]. Western blot analysis has been disclosed in the prior art. Specifically, the cells were collected in 2× sodium dodecyl sulfate/polyacrylamide gel electrophoresis loading buffer or in radioimmunoprecipitation assay (RIPA) buffer strengthened with 10 μg/mL benzamidine, 10 μg/mL trypsin inhibitor, and 1 mM phenylmethylsulfonyl fluoride. A sample of total protein (about 40 μg) from each cell lysate was separated by electrophoresis on an SDS/PAGE gel. After separation by electrophoresis, the proteins were transferred from the gel to a nitrocellulose membrane following the standard procedures. The membrane was then incubated with 10% non-fat milk in phosphate-buffered saline supplemented with 0.1% Tween 20 (PBST) for 1 h, followed by incubation with a primary human AR-specific antibody (purchased from BD-Harlingen) at 4° C. overnight. After incubation, the membrane was washed 3 times with PBST buffer, each for 10 mins. An alkaline phosphatase-conjugated secondary antibody was then added, and the membrane was incubated at room temperature for 1 h. After the secondary incubation, the membrane was washed again with PBST, and the AR protein signal in the membrane was visualized by adding an alkaline phosphatase medium, bromochloroindolyl phosphate, and nitrotetrazole to the membrane. To ensure that an equal amount of protein from each sample was analyzed, a portion of the membrane was kept with a specific antibody for the regulatory protein GAPDH (Santa Cruz Biotechnology), and the GAPDH signal was visualized with the secondary antibody described above. The protein signal intensity (as indicated by color bands on the membrane) was measured using a densitometer and analyzed by the NIH Image J software (NIH1.33).

[3] = Homo sapiens, 120 h, 1 nM DHT, 5 days, CTG

IC50 [1, 3] [nM] | SMILES | IC50 ([1]; Homo sapiens, 120 h) [nM] | further results
 | COc1ccc(/C=C/C(=O)C2(C(=O)/C=C/c3ccc(OC)c(OC)c3)CC3(CC3)C2)cc1OC [Compound 5] | 5480 | 
 | [2H]C([2H])([2H])Oc1ccc(/C=C/C(=O)C2(C(=O)/C=C/c3ccc(OC([2H])([2H])[2H])c(OC([2H])([2H])[2H])c3)CCCC2)cc1OC([2H])([2H])[2H] [Compound 3] | 1750 | 
950 | COc1ccc(/C=C/C(=O)C2(C(=O)/C=C/c3ccc(OC)c(OC)c3)CCC(O)CC2)cc1OC [Compound 13] |  | 
 | [2H]C([2H])([2H])Oc1ccc(/C=C/C(=O)C2(C(=O)/C=C/c3ccc(OC([2H])([2H])[2H])c(OC([2H])([2H])[2H])c3)CC2)cc1OC([2H])([2H])[2H] [Compound 1] | 1710 | 
980 | COc1ccc(/C=C/C(=O)C2(C(=O)/C=C/c3ccc(OC)c(OC)c3)CCC3(CC2)OCCO3)cc1OC [Compound 11] |  | 
610 | COc1ccc(/C=C/C(=O)C2(C(=O)/C=C/c3ccc(OC)c(OC)c3)CCC(N3CCC(F)(F)CC3)CC2)cc1OC [Compound 18 hydrochloride] |  | 
620 | COc1ccc(/C=C/C(=O)C2(C(=O)/C=C/c3ccc(OC)c(OC)c3)CCC(NC3CC(F)(F)C3)CC2)cc1OC [Compound 23 hydrochloride] |  | 
 | COc1ccc(/C=C/C(=O)C2(C(=O)/C=C/c3ccc(OC)c(OC)c3)CCN(C(=O)OC(C)(C)C)CC2)cc1OC [Compound 25] | 1370 | 
 | COc1ccc(/C=C/C(=O)C2(C(=O)/C=C/c3ccc(OC)c(OC)c3)CCC(N3CCOCC3)CC2)cc1OC [Compound 12] |  | IC50 ([1]; 1 nM DHT, 5 days, CTG): 1290 nM
3140 | COc1ccc(/C=C/C(=O)C2(C(=O)/C=C/c3ccc(OC)c(OC)c3)CC=C(F)CC2)cc1OC [Compound 22] |  | 
 | COc1ccc(/C=C/C(=O)C2(C(=O)/C=C/c3ccc(OC)c(OC)c3)COC(=O)OC2)cc1OC [Compound 9] | 3310 | 
 | [2H]C([2H])([2H])Oc1ccc(/C=C/C(=O)C2(C(=O)/C=C/c3ccc(OC([2H])([2H])[2H])c(OC([2H])([2H])[2H])c3)CCC2)cc1OC([2H])([2H])[2H] [Compound 2] | 1820 | 
 | COc1ccc(/C=C/C(=O)C2(C(=O)/C=C/c3ccc(OC)c(OC)c3)CCC(N3CCOCC3)CC2)cc1OC [Compound 12 hydrochloride] |  | IC50 ([1]; 1 nM DHT, 5 days, CTG, listed as 12 hydrochloride): 450 nM; anti-AR activity (in words) [2]: significant anti-AR activities; AR reduction percentage [2]: 86.2%; Relative potency (anti-AR activity) [2]: ++++++ (75 < * ≤ 100)
 | COc1ccc(/C=C/C(=O)C2(C(=O)/C=C/c3ccc(OC)c(OC)c3)CCN(S(C)(=O)=O)CC2)cc1OC [Compound 24] | 610 | 
 | [2H]C([2H])([2H])Oc1ccc(/C=C/C(=O)C2(C(=O)/C=C/c3ccc(OC([2H])([2H])[2H])c(OC([2H])([2H])[2H])c3)C([2H])([2H])C2([2H])[2H])cc1OC([2H])([2H])[2H] [Compound 6] | 2560 | 
350 | COc1ccc(/C=C/C(=O)C2(C(=O)/C=C/c3ccc(OC)c(OC)c3)CCC(N3CCCCC3)CC2)cc1OC [Compound 19 hydrochloride] |  | anti-AR activity (in words) [2]: significant anti-AR activities; AR reduction percentage [2]: 81.4%; Relative potency (anti-AR activity) [2]: ++++++ (75 < * ≤ 100)
 | CCN(CC)C1CCC(C(=O)/C=C/c2ccc(OC)c(OC)c2)(C(=O)/C=C/c2ccc(OC)c(OC)c2)CC1 [Compound 16 hydrochloride] | 370 | 
 | COc1ccc(/C=C/C(=O)C2(C(=O)/C=C/c3ccc(OC)c(OC)c3)CCC3(CC3)CC2)cc1OC [Compound 26] | 620 | 
